Source: ChEMBL document CHEMBL1201862, “PubChem BioAssay data set” (2004)
Activity calls are given as the source filed them.

Assays:
Cytochrome P450 2C9 = Cytochrome P450 2C9 (Homo sapiens, UniProt P11712)
Fatty acid synthase [1] = target: T1, Fatty acid synthase (Homo sapiens, UniProt P49327); assay: inhibition of human FAS-TE enzyme activity – biochemical, kinetic fluorescence intensity, dose response (AID 624326); format: functional;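 note: rate of fluorescence rise from hydrolysis of a fluorogenic O-methyl fluorescein ester substrate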
T1 sequence (P49327 whole entry): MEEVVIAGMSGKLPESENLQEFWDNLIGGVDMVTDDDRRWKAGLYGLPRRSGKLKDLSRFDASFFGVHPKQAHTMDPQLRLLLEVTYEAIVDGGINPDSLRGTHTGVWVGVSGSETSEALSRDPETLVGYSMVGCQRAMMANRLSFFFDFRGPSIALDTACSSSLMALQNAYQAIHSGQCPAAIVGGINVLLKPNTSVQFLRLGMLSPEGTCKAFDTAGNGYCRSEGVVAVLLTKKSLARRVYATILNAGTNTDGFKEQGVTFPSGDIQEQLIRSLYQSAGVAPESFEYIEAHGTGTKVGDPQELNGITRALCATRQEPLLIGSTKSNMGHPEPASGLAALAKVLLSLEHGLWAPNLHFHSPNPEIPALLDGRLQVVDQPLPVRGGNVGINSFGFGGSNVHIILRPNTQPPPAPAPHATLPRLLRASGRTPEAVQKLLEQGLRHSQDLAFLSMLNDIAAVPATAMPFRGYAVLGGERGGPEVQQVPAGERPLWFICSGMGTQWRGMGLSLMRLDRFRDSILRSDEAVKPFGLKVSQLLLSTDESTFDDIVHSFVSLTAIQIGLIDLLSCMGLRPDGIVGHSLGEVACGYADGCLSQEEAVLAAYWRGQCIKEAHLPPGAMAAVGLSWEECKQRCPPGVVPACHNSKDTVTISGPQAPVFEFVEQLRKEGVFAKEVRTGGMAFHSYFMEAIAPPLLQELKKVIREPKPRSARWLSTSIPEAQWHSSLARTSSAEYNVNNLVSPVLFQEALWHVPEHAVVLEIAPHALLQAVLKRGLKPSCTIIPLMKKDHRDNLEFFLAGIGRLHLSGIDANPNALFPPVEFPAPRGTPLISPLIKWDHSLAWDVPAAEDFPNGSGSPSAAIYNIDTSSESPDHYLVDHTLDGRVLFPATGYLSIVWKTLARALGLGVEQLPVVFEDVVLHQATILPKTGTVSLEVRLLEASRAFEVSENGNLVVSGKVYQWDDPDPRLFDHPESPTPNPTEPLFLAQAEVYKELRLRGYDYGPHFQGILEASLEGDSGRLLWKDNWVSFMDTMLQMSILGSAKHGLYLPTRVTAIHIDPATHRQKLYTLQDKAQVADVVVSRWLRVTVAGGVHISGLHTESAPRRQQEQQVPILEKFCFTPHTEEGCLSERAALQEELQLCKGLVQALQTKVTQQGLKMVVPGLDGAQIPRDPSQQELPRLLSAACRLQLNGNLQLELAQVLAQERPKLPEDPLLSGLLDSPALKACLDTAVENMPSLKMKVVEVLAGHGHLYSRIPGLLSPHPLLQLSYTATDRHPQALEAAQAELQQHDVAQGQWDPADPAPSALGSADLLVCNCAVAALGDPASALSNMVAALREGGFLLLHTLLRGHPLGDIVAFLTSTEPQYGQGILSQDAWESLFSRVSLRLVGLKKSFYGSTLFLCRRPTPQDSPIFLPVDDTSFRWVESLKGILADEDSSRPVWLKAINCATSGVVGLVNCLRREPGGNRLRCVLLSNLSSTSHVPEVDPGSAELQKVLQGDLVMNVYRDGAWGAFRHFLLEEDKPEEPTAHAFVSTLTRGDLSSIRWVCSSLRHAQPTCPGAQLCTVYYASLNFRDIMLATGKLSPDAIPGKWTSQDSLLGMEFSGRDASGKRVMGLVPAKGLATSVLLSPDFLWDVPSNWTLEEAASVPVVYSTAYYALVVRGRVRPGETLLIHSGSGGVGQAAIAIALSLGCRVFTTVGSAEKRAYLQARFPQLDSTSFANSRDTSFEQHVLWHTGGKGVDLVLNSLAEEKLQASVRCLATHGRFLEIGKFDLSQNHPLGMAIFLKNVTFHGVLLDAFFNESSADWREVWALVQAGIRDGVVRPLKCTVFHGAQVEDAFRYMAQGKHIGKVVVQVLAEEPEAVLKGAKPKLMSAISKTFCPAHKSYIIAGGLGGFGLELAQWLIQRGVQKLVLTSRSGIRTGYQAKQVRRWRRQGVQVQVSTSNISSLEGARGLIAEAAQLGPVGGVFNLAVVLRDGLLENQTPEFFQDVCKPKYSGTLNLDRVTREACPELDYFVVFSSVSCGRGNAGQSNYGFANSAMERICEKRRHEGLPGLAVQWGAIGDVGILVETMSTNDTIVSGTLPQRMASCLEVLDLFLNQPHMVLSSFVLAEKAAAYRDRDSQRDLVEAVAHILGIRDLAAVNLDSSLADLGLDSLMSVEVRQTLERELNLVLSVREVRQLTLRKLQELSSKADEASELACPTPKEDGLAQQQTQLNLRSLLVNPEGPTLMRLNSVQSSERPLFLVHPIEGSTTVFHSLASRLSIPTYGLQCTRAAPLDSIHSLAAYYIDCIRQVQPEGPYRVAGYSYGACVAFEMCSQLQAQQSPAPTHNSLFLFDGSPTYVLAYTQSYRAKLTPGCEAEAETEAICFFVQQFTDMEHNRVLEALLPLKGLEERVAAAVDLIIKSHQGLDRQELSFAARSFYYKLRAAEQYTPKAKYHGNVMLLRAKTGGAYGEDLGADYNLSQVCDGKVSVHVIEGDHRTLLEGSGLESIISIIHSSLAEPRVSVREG

[2] = target: T2, Heat shock factor protein 1 (Mus musculus, UniProt P38532); assay: enhancement of HSF1-driven luciferase signal – cell-based, NIH3T3, luminescence, dose retest, confirmation (AID 435004); format: functional;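 note: stress induced by proteasome inhibitor MG132 added 30 min after compound; luciferase reporter driven by HSF1 response element in NIH3T3 cells; actives raise luminescence as potentiators of the MG132 stress response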
T2 sequence (P38532 whole entry): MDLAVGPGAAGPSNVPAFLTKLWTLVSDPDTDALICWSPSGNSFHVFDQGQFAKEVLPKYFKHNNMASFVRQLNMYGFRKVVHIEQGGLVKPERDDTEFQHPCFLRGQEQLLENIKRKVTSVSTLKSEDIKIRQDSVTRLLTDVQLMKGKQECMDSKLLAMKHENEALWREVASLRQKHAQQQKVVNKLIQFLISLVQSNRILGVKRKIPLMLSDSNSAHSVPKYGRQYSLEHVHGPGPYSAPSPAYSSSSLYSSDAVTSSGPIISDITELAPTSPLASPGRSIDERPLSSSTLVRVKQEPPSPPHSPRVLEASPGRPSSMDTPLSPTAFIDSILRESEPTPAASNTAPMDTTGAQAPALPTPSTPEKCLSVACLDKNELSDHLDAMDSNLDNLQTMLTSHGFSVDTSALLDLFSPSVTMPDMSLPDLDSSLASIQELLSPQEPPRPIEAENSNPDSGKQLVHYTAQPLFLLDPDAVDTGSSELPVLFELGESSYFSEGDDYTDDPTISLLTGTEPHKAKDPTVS

Fatty acid synthase [3] = target: T1, Fatty acid synthase; assay: inhibition of human FAS-TE enzyme activity – biochemical, endpoint fluorescence intensity, uHTS hits, dose response (AID 624327); format: functional;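 note: fluorescence from hydrolysis of an O-methyl fluorescein acyl ester substrate by the enzyme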
[4] = target: T3, Calpain-2 catalytic subunit (Sus scrofa, UniProt P43367); assay: m-calpain protease blockers, concentration series – biochemical, fluorogenic peptide substrate, dose response (AID 1420); format: functional
T3 sequence (P43367 whole entry): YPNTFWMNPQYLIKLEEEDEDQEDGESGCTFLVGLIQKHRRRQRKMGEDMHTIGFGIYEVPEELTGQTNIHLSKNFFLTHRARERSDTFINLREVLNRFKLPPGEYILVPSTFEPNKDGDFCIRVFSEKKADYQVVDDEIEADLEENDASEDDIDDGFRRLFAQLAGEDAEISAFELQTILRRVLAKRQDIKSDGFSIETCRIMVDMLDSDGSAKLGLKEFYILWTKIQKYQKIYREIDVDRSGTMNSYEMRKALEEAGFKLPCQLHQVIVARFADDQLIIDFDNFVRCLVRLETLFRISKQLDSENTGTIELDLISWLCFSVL

cells = format: functional
[5] = THP-1 cell cytotoxicity, dose response, cytotoxicity control for non-replicating M. tuberculosis project (AID 489025); format: functional
Paired box protein Pax-8 = Paired box protein Pax-8 (Homo sapiens, UniProt Q06710); assay: PAX8 transcriptional activity inhibition in RMG-I – RMG-I cells, luciferase, cherry-pick, dose response (AID 687027); format: functional, cell-based;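 note: luciferase reporter driven by Pax8 target thyroperoxidase promoter measured by SteadyGlo luminescence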
Sequence of Paired box protein Pax-8 (Q06710 whole entry): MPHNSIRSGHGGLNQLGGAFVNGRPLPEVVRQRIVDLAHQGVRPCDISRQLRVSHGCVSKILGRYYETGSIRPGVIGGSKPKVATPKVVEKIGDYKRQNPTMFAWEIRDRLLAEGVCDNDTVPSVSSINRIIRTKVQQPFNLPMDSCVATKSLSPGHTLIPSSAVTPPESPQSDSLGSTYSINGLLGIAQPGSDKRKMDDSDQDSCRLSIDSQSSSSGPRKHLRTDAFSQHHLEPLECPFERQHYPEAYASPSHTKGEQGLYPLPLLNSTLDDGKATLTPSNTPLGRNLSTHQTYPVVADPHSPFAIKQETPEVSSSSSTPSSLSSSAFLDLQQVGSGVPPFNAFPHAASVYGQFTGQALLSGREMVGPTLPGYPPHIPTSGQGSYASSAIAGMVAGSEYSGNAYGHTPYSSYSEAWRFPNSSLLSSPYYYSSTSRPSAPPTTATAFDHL

Sequence of Cytochrome P450 2C9 (P11712 whole entry): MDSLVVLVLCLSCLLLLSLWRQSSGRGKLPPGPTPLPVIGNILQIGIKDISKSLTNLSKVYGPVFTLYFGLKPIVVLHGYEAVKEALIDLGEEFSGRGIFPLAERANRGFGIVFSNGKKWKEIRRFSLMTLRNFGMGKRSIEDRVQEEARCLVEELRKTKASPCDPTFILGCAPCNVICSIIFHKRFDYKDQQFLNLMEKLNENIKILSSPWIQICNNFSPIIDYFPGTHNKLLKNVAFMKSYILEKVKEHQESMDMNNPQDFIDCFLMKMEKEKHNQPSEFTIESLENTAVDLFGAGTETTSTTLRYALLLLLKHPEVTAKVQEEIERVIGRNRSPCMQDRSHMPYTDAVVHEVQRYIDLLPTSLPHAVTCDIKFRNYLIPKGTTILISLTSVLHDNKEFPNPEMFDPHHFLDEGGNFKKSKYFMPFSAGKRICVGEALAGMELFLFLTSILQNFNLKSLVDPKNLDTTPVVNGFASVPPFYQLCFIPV

SMILES	AC50 (Cytochrome P450 2C9)	AC50 (Paired box protein Pax-8)	further results
CCc1cccc2c(C=C(C#N)C#N)cn(CC(=O)N3CCCC3)c12	inconclusive		
O=C(Nc1ccccc1Cl)c1ccccc1Cl	inconclusive		
Cc1ccc(S(=O)(=O)N(C)C)cc1NC(S)=NC(C)CCCC(C)C (stereo not given)			IC50 (Fatty acid synthase [1]): 9.82 µM (active); EC50 [2]: > 260 µM (inactive); IC50 (Fatty acid synthase [3]): 12.3 µM (active)
Cc1cc(C)n(C(=O)c2cc3ccccc3c(=O)o2)n1	inconclusive		
Cc1cc2ncn(-c3ncnc4sc5c(c34)CCC(C)C5)c2cc1C (stereo not given)			IC50 [4]: 19.2 µM (not active)
c1ccc(Oc2ccc(-c3ccnc4ncnn34)cc2)cc1			IC50 [4]: 11.5 µM (active)
Cc1ccc(NC(=O)c2cccc(N(C)C)c2)cc1NC(=O)c1ccc(O)cc1	inconclusive		
C/C(=N\NC(=O)COc1ccc(C)cc1Br)c1cc([N+](=O)[O-])cs1			IC50 (cells): 34.1 µM (active); CC50 [5]: > 40 µM (active)
C[C@@H]1CCCCO[C@@H](CN(C)C(=O)C2CCCCC2)[C@H](C)CN([C@H](C)CO)C(=O)c2cc(NC(=O)Nc3ccc(F)cc3)ccc2O1		8.22 µM (active)	
C[C@H](CO)N1C[C@H](C)[C@H](CN(C)Cc2ccc(Cl)c(Cl)c2)OCCCC[C@H](C)Oc2ccc(NC(=O)Nc3ccccc3)cc2C1=O		11.9 µM (active)	
N#Cc1cccc(-c2ccc3c(c2)[C@@H]2[C@@H](CCN2S(=O)(=O)c2ccc(F)cc2)[C@@H](CO)N3)c1		6.61 µM (active)	
C[C@H]1CCCCO[C@@H](CN(C)S(=O)(=O)c2cccs2)[C@@H](C)CN([C@@H](C)CO)C(=O)c2cc(NC(=O)NC3CCCCC3)ccc2O1		4.79 µM (active)	
